Experimental data from patent publication US12448388B2, “PRMT5 inhibitors and uses thereof” (Gilead Sciences, Inc., priority 2023, dated 2025).

How the values were obtained:
[1] = test system: HCT116 MTAP-deleted cell lines; assay: Cell viability assay (CellTiter-Glo, 7 days), HCT116 MTAP-deleted; assay type: cell-based; details: Homo sapiens, HCT-116; cell viability, HCT116 MTAP-deleted; class symbols; read-out: CC50
Method in brief: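 Dose-response, PRMT5 inhibitors from DMSO serial dilution, pre-spotted; cells seeded onto compound plates. 7 d, 37 °C/5% CO2/90% RH. Readout: CTG luminescence → CC50.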

[2] = test system: Symmetric Di-methyl Arginine (SDMA) signal (PRMT5 inhibition) in HCT116 MTAP-deleted cells; assay: Symmetric di-methyl arginine image-based high content screen assay (SDMA assay), HCT116 MTAP-deleted; assay type: cell-based; details: for EC50 selectivity: HCT116 WT versus HCT116 MTAP-deleted; for EC50: Homo sapiens, HCT-116, HCT116 MTAP-deleted, class symbols
Method: Symmetric di-methyl arginine image-based high content screen assay (SDMA assay) was performed in HCT116 WT and HCT116 MTAP-deleted cell lines to measure Symmetric Di-methyl Arginine (SDMA) signal reduction after selective PRMT5 inhibition in the MTAP-deleted cells. Control compounds were analyzed in parallel each time for quality control.
Briefly, the same compound plates were generated as mentioned in the previous section of Cell viability assay on Day −1. On Day 0, 800 HCT WT or HCT116 MTAP-deleted cell were seeded in compound-containing 384 well plates (50 μl per well) in RPMI 1640 media supplemented with 10% heat inactivated fetal bovine serum, Glutamax and penicillin streptomycin using EL460 liquid dispenser 5 μl cassette (BioTek, part no. 7170011). After equilibrating the plate at room temperature, the cells were incubated for 3 days inside the sealed incubator set at 37° C. with 90% humidity and 5% C02.
On Day 3, the cells were fixed by adding 45 μl of 8% neutralized formalin solution to each well using EL460 liquid dispenser 5 μl cassette and the cells were incubated for 30 minutes at room temperature. The formalin solution was washed off with […] phosphate buffered saline (dPBS), the 0.1% Triton X-100 solution in dPBS was used to permeabilize the cells for 15 minutes at room temperature. The triton solution was aspirated, 50 μl of Odyssey Blocking buffer +0.05% Tween20 was added and the plate was incubated at room temperature for 30 minutes.
The blocking solution was removed, a 20 μl of SDMA antibody (Cell Signaling Technology, Cat no. 13222) diluted 1:500 in Odyssey Blocking buffer +0.05% Tween20 was added and the plate was incubated at 4° C. overnight. Next day, the primary SDME antibody solution was washed from each well three times with 0.05% Tween20 in dPBS (PBST).
A 30 μl of the secondary antibody, a Goat anti-Rabbit Alexa Fluor Plus 488 (Invitrogen, Cat no. PIA32731) was diluted 1:500 in Odyssey Blocking buffer +0.05% Tween20 and the plate was incubated for 1.5 hours in dark at room temperature. The secondary antibody solution was removed, 30 μl of 5 mg/ml DAPI solution diluted 1:2000 in dPBS was added and the plate was incubated for 30 minutes in dark at room temperature. The DAPI solution was aspirated and the wells were washed six times with dPBS.
The SDMA signal and DAPI signal per cell were counted using a Cellomics CX7 LZR instrument reading under 488 and 405 nm laser, respectively. The SDMA signal was quantified by mean average intensity per cell from Alexa Fluor Plus 488 after the cell was defined with DAPI. The EC50 values for each compound after 3 days of treatment were calculated using 4 parameter non-linear logistical curve fit.
For the SDMA assay i.e. EC50 shown in Table 3A: A: EC50≤1 nM, B: 1 nM<EC50≤5 nM, C: EC50>5 nM.

Row | Structure (SMILES) | CC50 [1] | EC50 selectivity [2] | EC50 [2]
1 | CC(=O)N(C)N(Cc1nc2cc(Cl)ccc2s1)C(=O)c1ccc2nc(N)c3cnc(C)n3c2c1 [Fb-6, N′-acetyl-4-amino-N-((5-chlorobenzo[d]thiazol-2-yl)methyl)-N′,1-dimethylimidazo[1,5-a]quinoxaline-8-carbohydrazide] | 100 to 1000 nM | 390 | > 5 nM
2 | CN(C(=O)c1cc2c(cc1F)nc(N)c1cncn12)[C@@H](c1ccc(C(F)(F)F)cc1F)C(F)F [Fb-8, (S)-4-amino-N-(2,2-difluoro-1-(2-fluoro-4-(trifluoromethyl)phenyl)ethyl)-7-fluoro-N-methylimidazo[1,5-a]quinoxaline-8-carboxamide] | < 100 nM | 224 | ≤ 1 nM
3 | Cc1ncc2c(N)nc3ccc(C(=O)N(Cc4ccc(C(F)(F)F)cn4)N4CCCC4=O)cc3n12 [Fc-1, 4-amino-1-methyl-N-(2-oxopyrrolidin-1-yl)-N-[[5-(trifluoromethyl)-2-pyridyl]methyl]imid-azo[1,5-a]quinoxaline-8-carboxamide] | 100 to 1000 nM | 171 | 1 to 5 nM
4 | CC(=O)N(C)N(Cc1ccc(OC(F)F)cc1F)C(=O)c1ccc2nc(N)c3cnc(C)n3c2c1 [Fc-2, N′-acetyl-4-amino-N-(4-(difluoromethoxy)-2-fluorobenzyl)-N′,1-dimethylimidazo[1,5-a]quinoxaline-8-carbohydrazide] | 100 to 1000 nM | 431 | 1 to 5 nM
5 | Nc1nc2ccc(C(=O)N(Cc3ccc(C(F)(F)F)cn3)N3CCCC3=O)cc2n2cncc12 [Fd-1, 4-amino-N-(2-oxopyrrolidin-1-yl)-N-((5-(trifluoromethyl)pyridin-2-yl)methyl)imidazo[1,5-a]quinoxaline-8-carboxamide] | 100 to 1000 nM | 54 | 1 to 5 nM
6 | Nc1nc2ccc(C(=O)N(Cc3ccc(C(F)(F)F)cn3)C34CC(C3)C4)cc2n2cncc12 [Fe-1, 4-amino-N-(bicyclo[1.1.1]pentan-1-yl)-N-((5-(trifluoromethyl)pyridin-2-yl)methyl)imidazo[1,5-a]quinoxaline-8-carboxamide] | < 100 nM | 62 | 1 to 5 nM
7 | C[C@H](c1ncccn1)N(Cc1ccc(C(F)(F)F)cn1)C(=O)c1ccc2nc(N)c3cncn3c2c1 [Fe-2, (R)-4-amino-N-(1-(pyrimidin-2-yl)ethyl)-N-((5-(trifluoromethyl)pyridin-2-yl)methyl)imidazo[1,5-a]quinoxaline-8-carboxamide] | < 100 nM | 5 | ≤ 1 nM
8 | Nc1nc2cc(F)c(C(=O)N(Cc3ccc(C(F)(F)F)cn3)C34CC(C3)C4)cc2n2cncc12 [Ff-1, 4-amino-N-(bicyclo[1.1.1]pentan-1-yl)-7-fluoro-N-((5-(trifluoromethyl)pyridin-2-yl)methyl)imidazo[1,5-a]quinoxaline-8-carboxamide] | < 100 nM | 37 | ≤ 1 nM
9 | Nc1nc2cc(F)c(C(=O)N3CCC(c4ccc(C(F)(F)F)cc4F)C3)cc2n2cncc12 (stereo not drawn) [Ff-4, (4-amino-7-fluoroimidazo[1,5-a]quinoxalin-8-yl)(3-(2-fluoro-4-(trifluoromethyl)phenyl)pyrrolidin-1-yl)methanone] | 100 to 1000 nM | 2956 | > 5 nM
10 | CN(Cc1cccc2ccoc12)C(=O)c1ccc2nc(N)c3cncn3c2c1 [Ff-5, 4-amino-N-(benzofuran-7-ylmethyl)-N-methylimidazo[1,5-a]quinoxaline-8-carboxamide] | > 1000 nM | 334 | > 5 nM
11 | Nc1nc2cc(F)c(C(=O)N(Cc3ccc(Cl)cc3F)C34CC(C3)C4)cc2n2cncc12 [Ff-6, 4-amino-N-(bicyclo[1.1.1]pentan-1-yl)-N-(4-chloro-2-fluorobenzyl)-7-fluoroimidazo[1,5-a]quinoxaline-8-carboxamide] | 100 to 1000 nM | 71 | > 5 nM
